Data from PubChem BioAssay (NCI).
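How tested: cells in 96-well plates exposed to compound for 48 hours at five concentrations. GI50: concentration for 50% inhibition of growth. TGI denotes the concentration required for complete inhibition of growth.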

Legend:
Experiment in all cases: DTP human tumour cell line panel, 48 h
[1] = tested on: SK-MEL-28 melanoma
[2] = tested on: HT29 colon
[3] = tested on: PC-3 prostate
[4] = tested on: HCT-116 colon
[5] = tested on: HCT-15 colon
[6] = tested on: 786-0 renal
[7] = tested on: NCI-H522 lung
[8] = tested on: RPMI-8226 leukemia
[9] = tested on: UO-31 renal
[10] = tested on: EKVX NSCLC
[11] = tested on: MOLT-4 leukemia
[12] = tested on: SF-268 CNS
[13] = tested on: ACHN renal
[14] = tested on: MCF7 breast
[15] = tested on: RXF 393 renal
[16] = tested on: HL-60(TB) leukemia
[17] = tested on: OVCAR-5 ovarian
[18] = tested on: NCI-H226 lung
[19] = tested on: NCI-H460 lung
[20] = tested on: OVCAR-8 ovarian
[21] = tested on: T-47D breast
[22] = tested on: A498 renal
[23] = tested on: MDA-MB-435
[24] = tested on: CAKI-1 renal
[25] = tested on: UACC-62 melanoma
[26] = tested on: SNB-19 CNS
[27] = tested on: NCI-H23 lung
[28] = tested on: U251 CNS
[29] = tested on: CCRF-CEM leukemia
[30] = tested on: COLO 205 colon
[31] = tested on: K-562 leukemia
[32] = tested on: SK-OV-3 ovarian
[33] = tested on: SF-539 CNS
[34] = tested on: A549 NSCLC
[35] = tested on: BT-549 breast
[36] = tested on: KM12 colon
[37] = tested on: MALME-3M melanoma
[38] = tested on: OVCAR-4 ovarian
[39] = tested on: IGROV1 ovarian
[40] = tested on: DU-145 prostate
[41] = tested on: NCI/ADR-RES ovarian
[42] = tested on: M14 melanoma
[43] = tested on: OVCAR-3 ovarian
[44] = tested on: SN12C renal
[45] = tested on: SW-620 colon
[46] = tested on: HS 578T breast
[47] = tested on: SF-295 CNS
[48] = tested on: TK-10 renal
[49] = tested on: HOP-62 NSCLC
[50] = tested on: SNB-75 CNS
[51] = tested on: SK-MEL-2 melanoma
[52] = tested on: UACC-257 melanoma
[53] = tested on: SR leukemia
[54] = tested on: HCC-2998 colon

Question: Which results are given for `COc1ccc(-c2ccc(C3CC(c4ccc(O)cc4)=NN3)o2)c([N+](=O)[O-])c1` (configuration not stated)?
Answer: GI50 [1]: 45.8 µM; TGI [1]: > 100 µM; GI50 [2]: 40.1 µM; TGI [2]: 97.6 µM; GI50 [3]: 25.9 µM; TGI [3]: > 100 µM; GI50 [4]: 20.1 µM; TGI [4]: > 100 µM; GI50 [5]: 35.4 µM; TGI [5]: > 100 µM; GI50 [6]: 45.1 µM; TGI [6]: > 100 µM; GI50 [7]: 39 µM; TGI [7]: > 100 µM; GI50 [8]: 11.6 µM; TGI [8]: 71.9 µM; GI50 [9]: 50.3 µM; TGI [9]: > 100 µM; GI50 [10]: 43 µM; TGI [10]: > 100 µM; GI50 [11]: 5.14 µM; TGI [11]: 29.9 µM; GI50 [12]: 22.3 µM; TGI [12]: > 100 µM; GI50 [13]: 42 µM; TGI [13]: > 100 µM; GI50 [14]: 24.4 µM; TGI [14]: 74.4 µM; GI50 [15]: 23.7 µM; TGI [15]: > 100 µM; GI50 [16]: 13 µM; TGI [16]: 38.8 µM; GI50 [17]: > 100 µM; TGI [17]: > 100 µM; GI50 [18]: 36.4 µM; TGI [18]: > 100 µM; GI50 [19]: 21.1 µM; TGI [19]: 81.8 µM; GI50 [20]: 42.8 µM; TGI [20]: > 100 µM; GI50 [21]: 75 µM; TGI [21]: > 100 µM; GI50 [22]: 30.4 µM; TGI [22]: > 100 µM; GI50 [23]: 30 µM; TGI [23]: > 100 µM; GI50 [24]: 34.4 µM; TGI [24]: > 100 µM; GI50 [25]: 33.1 µM; TGI [25]: > 100 µM; GI50 [26]: 82.6 µM; TGI [26]: > 100 µM; GI50 [27]: 42.5 µM; TGI [27]: > 100 µM; GI50 [28]: 19 µM; TGI [28]: > 100 µM; GI50 [29]: 4.84 µM; TGI [29]: > 100 µM; GI50 [30]: 27.2 µM; TGI [30]: 82.7 µM; GI50 [31]: 13.9 µM; TGI [31]: 36.3 µM; GI50 [32]: 19.8 µM; TGI [32]: > 100 µM; GI50 [33]: 27.4 µM; TGI [33]: 97.5 µM; GI50 [34]: 25.7 µM; TGI [34]: 84 µM; GI50 [35]: 32.8 µM; TGI [35]: > 100 µM; GI50 [36]: 24.5 µM; TGI [36]: 95.9 µM; GI50 [37]: 19.1 µM; TGI [37]: 51.3 µM; GI50 [38]: 50.2 µM; TGI [38]: 96.6 µM; GI50 [39]: 84.9 µM; TGI [39]: > 100 µM; GI50 [40]: 29.4 µM; TGI [40]: > 100 µM; GI50 [41]: 38.5 µM; TGI [41]: > 100 µM; GI50 [42]: 36.1 µM; TGI [42]: > 100 µM; GI50 [43]: 24.1 µM; TGI [43]: > 100 µM; GI50 [44]: 30.8 µM; TGI [44]: > 100 µM; GI50 [45]: 37.3 µM; TGI [45]: > 100 µM; GI50 [46]: 34.7 µM; TGI [46]: > 100 µM; GI50 [47]: 29.9 µM; TGI [47]: > 100 µM; GI50 [48]: 40.1 µM; TGI [48]: > 100 µM; GI50 [49]: 34 µM; TGI [49]: > 100 µM

Question: For `Cc1ccccc1NC(=O)NC(Oc1ccccc1)(C(F)(F)F)C(F)(F)F`, which TGI [1] is on record?
Answer: The TGI was over 100 µM.

Question: What about the TGI [2] of the same compound?
Answer: The TGI was over 100 µM.

Question: What about the TGI [4] of the same compound?
Answer: Its TGI is over 100 µM.

Question: And the TGI [6]?
Answer: Its TGI is over 100 µM.

Question: And the TGI [8]?
Answer: The TGI was over 100 µM.

Question: What about the TGI [9] of the same compound?
Answer: Its TGI is over 100 µM.

Question: What about the TGI [11] of the same compound?
Answer: The TGI was over 100 µM.

Question: What about the TGI [12] of the same compound?
Answer: Its TGI is over 100 µM.

Question: And the TGI [13]?
Answer: The TGI was over 100 µM.

Question: What about the TGI [15] of the same compound?
Answer: The TGI was over 100 µM.

Question: What about the TGI [16] of the same compound?
Answer: Its TGI is over 100 µM.

Question: What about the TGI [17] of the same compound?
Answer: The TGI was over 100 µM.

Question: What about the TGI [21] of the same compound?
Answer: Its TGI is over 100 µM.

Question: And the TGI [22]?
Answer: Its TGI is over 100 µM.

Question: And the TGI [23]?
Answer: Its TGI is over 100 µM.

Question: What about the TGI [24] of the same compound?
Answer: The TGI was 97.5 µM.

Question: What about the TGI [50] of the same compound?
Answer: Its TGI is over 100 µM.

Question: And the TGI [26]?
Answer: The TGI was over 100 µM.

Question: What about the TGI [51] of the same compound?
Answer: Its TGI is over 100 µM.

Question: And the TGI [27]?
Answer: The TGI was over 100 µM.

Question: What about the TGI [28] of the same compound?
Answer: Its TGI is over 100 µM.

Question: What about the TGI [29] of the same compound?
Answer: The TGI was over 100 µM.

Question: And the TGI [30]?
Answer: Its TGI is over 100 µM.

Question: What about the TGI [31] of the same compound?
Answer: Its TGI is over 100 µM.

Question: And the TGI [32]?
Answer: Its TGI is over 100 µM.

Question: What about the TGI [52] of the same compound?
Answer: The TGI was over 100 µM.

Question: What about the TGI [33] of the same compound?
Answer: The TGI was over 100 µM.

Question: And the TGI [35]?
Answer: Its TGI is over 100 µM.

Question: What about the TGI [39] of the same compound?
Answer: The TGI was over 100 µM.

Question: What about the TGI [41] of the same compound?
Answer: The TGI was over 100 µM.

Question: And the TGI [42]?
Answer: The TGI was over 100 µM.

Question: What about the TGI [53] of the same compound?
Answer: Its TGI is over 100 µM.

Question: What about the TGI [54] of the same compound?
Answer: The TGI was over 100 µM.

Question: What about the TGI [46] of the same compound?
Answer: Its TGI is over 100 µM.
